pIC50: −log10 of the molar value.
Key:
[1] = test system: multiple myeloma (U266) cells; test: MTS cell viability assay in U266 cells; type: cell-based; settings: Homo sapiens, U-266, U266, 48 h
Description: (§1) Each type of cells (5,000 or 10,000 cells/well) were treated with different concentration (0.1 μM to 20 μM in 1% DMSO of berbamine and BA #3 respectively for 48 h. Then, MTS assay for cell viability were carried out to determine the IC50 values. Four samples were tested for each test compound at each concentration for each type of cells, and the averaged data were shown in Table 4 and FIGS. 12-13.

[2] = test system: human erythroleukemia HEL (homozygous JAK2 V617F mutation) cells; test: MTS cell viability assay in HEL cells; type: cell-based; settings: HEL Jak2 V617 mutation, 48 h
Description: HEL Jak2 V617 mutation cells (10,000 cells/well) were treated with different concentration (0.1 μM to 20 μM in 1% DMSO of berbamine, BA #3, and BA #10 respectively for 48 h. Then, MTS assay for cell viability were carried out to determine the IC50 values. Four samples were tested for each test compound at each concentration, and the averaged data were shown in Table 3 and FIGS. 10-11.

[3] = Maximum tolerated dose (MTD) study, body weight; type: in vivo; settings: mice, oral, 50 mg/kg and 100 mg/kg every day for 5 days
Description: Three test groups of mice (four mice per group) were orally administrated with vehicle only, 50 mg/kg BA #3 and 100 mg/kg BA #3 respectively every day for 5 days. Mice were weighed every day. Two sets of experiments were carried out (FIGS. 22(A) and (B)).

melanoma G361 cells = test: MTS cell viability assay in G361 cells; type: cell-based; settings: Homo sapiens, G-361, G361, 48 h
Description: as §1

[4] = test system: human acute lymphocytic leukemia (Reh) cells; test: MTS cell viability assay in Reh cells; type: cell-based; settings: 48 h
Description: as §1

[5] = test system: DU145 prostate cancer cell line; test: MTS cell viability assay in DU145 cells; type: cell-based; settings: Homo sapiens, DU-145, 48 h, DU145, 48 h
Description: (§2) IC50 of values of berbamine derivatives were determined in cancer cell lines DU145 and A2058 respectively. DU145 and A2058 cells (5,000 cells/well) were treated with berbamine derivatives in a dose-dependent manner (0.1 to 20 μM in 1% DMSO for 48 h. Then, MTS assay for cell viability were carried out to determine the IC50 values. Four samples were tested for each berbamine derivatives at each concentration in each cell line, and the averaged data were shown in Table 1 and FIGS. 1-8.

Bcl-xL = test: Western blot of Bcl-xL protein; type: cell-based; settings: 5 μM, 24 h
Description: (§3) To determine whether BA #3 down-regulates Stat3 downstream anti-apototic proteins Mcl-1 and Bcl-xL, cells were treated with BA #3 in a dose-dependent manner for 24 h. Western blots were performed with specific antibodies to Mcl-1 and Bcl-xL.

[6] = test system: ovarian cancer OVCAR5 cells; test: MTS cell viability assay in OVCAR5 cells; type: cell-based; settings: Homo sapiens, OVCAR-5, OVCAR5, 48 h
Description: as §1

Src kinase = Src kinase (Homo sapiens, UniProt P12931); test: In vitro Src kinase assay with peptide substrate; type: biochemical; settings: activated recombinant protein with peptide substrate and ATP
Chain of Src kinase (P12931 whole entry): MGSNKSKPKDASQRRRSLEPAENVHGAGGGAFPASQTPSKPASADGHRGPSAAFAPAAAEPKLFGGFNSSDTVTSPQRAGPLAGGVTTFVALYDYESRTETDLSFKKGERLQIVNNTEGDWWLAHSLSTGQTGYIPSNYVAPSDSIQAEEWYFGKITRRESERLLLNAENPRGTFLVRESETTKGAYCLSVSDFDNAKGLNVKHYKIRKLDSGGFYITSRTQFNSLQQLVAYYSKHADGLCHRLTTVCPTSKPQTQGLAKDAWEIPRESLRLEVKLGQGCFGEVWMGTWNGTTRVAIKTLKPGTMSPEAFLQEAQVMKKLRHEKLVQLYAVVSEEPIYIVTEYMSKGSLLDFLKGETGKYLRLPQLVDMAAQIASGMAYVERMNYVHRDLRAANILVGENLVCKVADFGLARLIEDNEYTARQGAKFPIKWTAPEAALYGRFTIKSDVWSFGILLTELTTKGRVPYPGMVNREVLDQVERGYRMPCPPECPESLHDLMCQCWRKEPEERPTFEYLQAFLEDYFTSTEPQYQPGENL
From the text: (§4) To determine whether BA #3 inhibits activities of Src kinase, Jak2 kinase, Jak1 kinase and Tyk2 kinase in vitro, activated recombinant proteins were mixed with peptide substrates and ATP in the absence or the presence of BA #3. […] However, BA #3 reduced Jak2 autophosphorylation kinase activity at Tyr1007/1008 sites in vitro in the reaction of mixture of non-activated recombinant Jak2 protein and ATP in the absence of substrates (FIG. 19).

Mcl-1 = test: Western blot of Mcl-1 protein; type: cell-based; settings: 5 μM, 24 h
Description: as §3

Jak2/Stat3 signaling [7] = test: Western blot of Jak2/Stat3 signaling in erythroleukemia HEL cells; type: cell-based; settings: 0-10 μM, 4 hour
Description: (§5) To determine whether BA #3 block Jak2/Stat3 or Src/Stat3 signaling pathway, A2058 melanoma (A and B) and erythroleukemia HEL cells were treated with BA #3 in a dose- or time-dependent manner. Western blots were performed with specific antibodies to p-Jak2, p-Src, p-Stat3, p-AKT, Jak2, Src, Stat3 and AKT.

Tyk2 kinase = Tyk2 kinase (Homo sapiens, UniProt P29597); test: In vitro Tyk2 kinase assay with peptide substrate; type: biochemical; settings: activated recombinant protein with peptide substrate and ATP
Chain of Tyk2 kinase (P29597 whole entry): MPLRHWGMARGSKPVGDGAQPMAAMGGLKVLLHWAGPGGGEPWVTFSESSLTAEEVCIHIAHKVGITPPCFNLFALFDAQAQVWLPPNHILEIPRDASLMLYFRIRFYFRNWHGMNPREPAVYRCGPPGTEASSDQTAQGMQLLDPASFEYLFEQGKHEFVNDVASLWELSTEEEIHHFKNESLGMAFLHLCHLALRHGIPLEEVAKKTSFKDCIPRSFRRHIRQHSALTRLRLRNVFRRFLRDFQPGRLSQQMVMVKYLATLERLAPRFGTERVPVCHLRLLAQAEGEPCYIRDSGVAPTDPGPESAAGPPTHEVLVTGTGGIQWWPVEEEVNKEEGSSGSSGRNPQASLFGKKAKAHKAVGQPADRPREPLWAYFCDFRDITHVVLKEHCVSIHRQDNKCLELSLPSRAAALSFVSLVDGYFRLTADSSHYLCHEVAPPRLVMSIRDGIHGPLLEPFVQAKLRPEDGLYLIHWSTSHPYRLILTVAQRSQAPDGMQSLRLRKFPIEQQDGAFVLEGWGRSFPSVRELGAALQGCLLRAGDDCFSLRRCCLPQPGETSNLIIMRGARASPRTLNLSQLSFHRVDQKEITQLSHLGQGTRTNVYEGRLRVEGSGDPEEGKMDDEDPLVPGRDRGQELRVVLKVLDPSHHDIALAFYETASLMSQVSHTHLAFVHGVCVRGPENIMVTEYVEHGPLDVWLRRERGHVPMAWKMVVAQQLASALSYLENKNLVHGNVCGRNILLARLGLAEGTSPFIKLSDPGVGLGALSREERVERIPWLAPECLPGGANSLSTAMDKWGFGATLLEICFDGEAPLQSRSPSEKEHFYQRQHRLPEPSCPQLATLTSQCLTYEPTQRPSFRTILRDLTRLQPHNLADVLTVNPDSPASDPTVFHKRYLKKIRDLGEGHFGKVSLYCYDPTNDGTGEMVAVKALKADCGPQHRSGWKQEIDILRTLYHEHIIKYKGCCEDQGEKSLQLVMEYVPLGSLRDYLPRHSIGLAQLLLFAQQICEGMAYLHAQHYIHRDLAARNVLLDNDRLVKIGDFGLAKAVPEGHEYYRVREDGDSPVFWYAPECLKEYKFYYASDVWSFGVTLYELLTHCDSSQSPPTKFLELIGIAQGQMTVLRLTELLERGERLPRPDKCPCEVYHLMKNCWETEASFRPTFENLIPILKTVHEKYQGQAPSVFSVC
From the text: as §4

[8] = test system: human acute lymphoblastic leukemia (Molt4) cells; test: MTS cell viability assay in Molt4 cells; type: cell-based; settings: MOLT-4, Molt4, 48 h
Description: as §1

melanoma A375 cells = test: MTS cell viability assay in A375 cells; type: cell-based; settings: Homo sapiens, A-375, A375, 48 h
Description: as §1

[9] = test system: A2058 human melanoma cell line; test: MTS cell viability assay in A2058 cells; type: cell-based; settings: Homo sapiens, A2058, 48 h
Description: as §2

melanoma SK-MEL-28 cells = test: MTS cell viability assay in SK-MEL-28 cells; type: cell-based; settings: Homo sapiens, SK-MEL-28, 48 h
Description: as §1

[10] = test system: Imatinib-resistant leukemia (K562/ADR) cells; test: Cell viability in imatinib-resistant leukemia cells; type: cell-based
Description: Imatinib-resistant leukemia (K562/ADR) cells (5,000 cells/well) were treated with different concentrations (0.6-40 μM in DMSO) of BA #1, BA #3 and BA #4 respectively for 48 hours and cell viability was measured.

Jak1 kinase = Jak1 kinase (Homo sapiens, UniProt P23458); test: In vitro Jak1 kinase assay with peptide substrate; type: biochemical; settings: activated recombinant protein with peptide substrate and ATP
Chain of Jak1 kinase (P23458 whole entry): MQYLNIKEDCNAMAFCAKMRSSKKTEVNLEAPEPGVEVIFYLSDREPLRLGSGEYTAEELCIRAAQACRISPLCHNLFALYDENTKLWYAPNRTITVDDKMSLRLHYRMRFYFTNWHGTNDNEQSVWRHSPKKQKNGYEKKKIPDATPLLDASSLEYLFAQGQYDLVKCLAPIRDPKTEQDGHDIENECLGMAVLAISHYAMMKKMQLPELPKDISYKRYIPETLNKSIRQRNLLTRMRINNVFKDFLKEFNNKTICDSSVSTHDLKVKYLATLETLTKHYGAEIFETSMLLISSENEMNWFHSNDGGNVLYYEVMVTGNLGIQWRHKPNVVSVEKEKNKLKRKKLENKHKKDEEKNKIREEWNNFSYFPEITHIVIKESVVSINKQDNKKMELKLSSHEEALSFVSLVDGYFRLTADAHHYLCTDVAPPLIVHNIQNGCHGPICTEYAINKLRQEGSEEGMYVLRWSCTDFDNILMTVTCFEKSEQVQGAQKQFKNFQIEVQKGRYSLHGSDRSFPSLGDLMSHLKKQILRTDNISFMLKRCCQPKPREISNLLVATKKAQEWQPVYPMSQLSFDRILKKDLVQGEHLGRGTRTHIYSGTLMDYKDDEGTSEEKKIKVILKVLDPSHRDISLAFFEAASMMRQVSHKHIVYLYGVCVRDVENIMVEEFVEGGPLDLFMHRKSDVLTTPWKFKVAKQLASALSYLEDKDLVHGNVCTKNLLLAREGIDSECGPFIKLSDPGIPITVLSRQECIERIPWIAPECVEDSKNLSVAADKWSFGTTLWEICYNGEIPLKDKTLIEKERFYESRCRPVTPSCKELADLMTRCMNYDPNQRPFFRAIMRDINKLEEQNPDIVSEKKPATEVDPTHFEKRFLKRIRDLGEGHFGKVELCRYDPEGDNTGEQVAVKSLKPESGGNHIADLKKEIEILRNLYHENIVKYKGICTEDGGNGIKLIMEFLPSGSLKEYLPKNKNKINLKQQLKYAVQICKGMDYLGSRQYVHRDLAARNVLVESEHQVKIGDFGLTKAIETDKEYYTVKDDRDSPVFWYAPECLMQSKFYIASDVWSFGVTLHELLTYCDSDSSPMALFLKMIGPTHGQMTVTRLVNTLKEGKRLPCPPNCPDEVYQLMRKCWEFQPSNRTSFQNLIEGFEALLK
From the text: as §4

A2058 cells = test: Annexin V-FITC apoptosis assay; type: cell-based; settings: 0-10 μM, 48 hours
Description: A2058 cells were treated with BA #3 in a dose dependent manner (0-10 μM) for 48 hours.

Jak2 kinase = Jak2 kinase (Homo sapiens, UniProt O60674); test: In vitro Jak2 kinase assay with peptide substrate; type: biochemical; settings: activated recombinant protein with peptide substrate and ATP
Chain of Jak2 kinase (O60674 whole entry): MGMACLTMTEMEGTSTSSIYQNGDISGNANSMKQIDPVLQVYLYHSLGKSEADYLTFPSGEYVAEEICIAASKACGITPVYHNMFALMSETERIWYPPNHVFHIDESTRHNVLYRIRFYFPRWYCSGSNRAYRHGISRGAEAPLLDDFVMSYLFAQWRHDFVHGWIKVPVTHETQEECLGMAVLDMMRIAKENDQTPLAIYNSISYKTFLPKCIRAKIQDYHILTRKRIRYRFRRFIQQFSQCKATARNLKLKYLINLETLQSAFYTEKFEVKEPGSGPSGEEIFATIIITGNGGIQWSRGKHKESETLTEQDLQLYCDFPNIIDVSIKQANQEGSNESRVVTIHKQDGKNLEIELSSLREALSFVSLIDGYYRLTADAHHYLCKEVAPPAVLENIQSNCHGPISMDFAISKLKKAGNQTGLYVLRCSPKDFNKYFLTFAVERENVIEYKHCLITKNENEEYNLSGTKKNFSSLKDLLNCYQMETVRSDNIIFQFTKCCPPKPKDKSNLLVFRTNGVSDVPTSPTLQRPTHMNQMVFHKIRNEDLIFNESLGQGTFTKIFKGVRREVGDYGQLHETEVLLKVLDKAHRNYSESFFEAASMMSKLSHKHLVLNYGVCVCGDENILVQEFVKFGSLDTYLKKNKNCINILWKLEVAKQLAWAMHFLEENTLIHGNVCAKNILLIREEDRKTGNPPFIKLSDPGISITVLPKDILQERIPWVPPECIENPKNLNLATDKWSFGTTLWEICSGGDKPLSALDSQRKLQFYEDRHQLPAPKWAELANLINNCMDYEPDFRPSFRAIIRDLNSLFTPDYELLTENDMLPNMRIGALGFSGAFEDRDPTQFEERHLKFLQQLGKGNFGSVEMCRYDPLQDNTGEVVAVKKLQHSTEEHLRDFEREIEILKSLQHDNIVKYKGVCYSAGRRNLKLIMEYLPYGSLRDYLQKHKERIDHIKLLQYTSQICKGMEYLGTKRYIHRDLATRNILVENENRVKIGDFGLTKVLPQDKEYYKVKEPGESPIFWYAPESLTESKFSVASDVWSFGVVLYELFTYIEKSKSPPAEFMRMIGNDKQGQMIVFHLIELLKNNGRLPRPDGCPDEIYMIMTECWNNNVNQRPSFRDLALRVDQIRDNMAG
From the text: as §4

[11] = test system: pancreatic cancer (PANC-1) cells; test: MTS cell viability assay in PANC-1 cells; type: cell-based; settings: Homo sapiens, PANC-1, 48 h
Description: as §1

Jak2/Stat3 signaling [12] = test: Western blot of Jak2/Stat3 signaling in A2058 melanoma cells; type: cell-based; settings: 0-10 μM for 4 hour or 10 μM for 0-24 hour
Description: as §5

[13] = test system: Human normal dermal fibroblast (NHDF) cells; test: Cell viability in normal dermal fibroblasts; type: cell-based; settings: Homo sapiens, 48 h
[14] = target: non-activated recombinant Jak2 protein (autophosphorylation at Tyr1007/1008) (Homo sapiens, UniProt O60674); test: In vitro Jak2 autophosphorylation kinase assay; type: biochemical; settings: non-activated recombinant Jak2 and ATP, no substrate, densitometry; read-out: IC50 for inhibition of autophosphorylation kinase activity
Chain of non-activated recombinant Jak2 protein (autophosphorylation at Tyr1007/1008) (O60674 whole entry): as above
From the text: as §4, with “FIG. 19. In vitro Jak2 autophosphorylation kinase assay of BA #3. A) Autophosphorylation of Jak2 at Tyr1007/1008 was required for its catalytic activity, non-activated recombinant Jak2 protein was mixed with ATP in the absence or presence of BA #3; B) inhibitory activity of Jak2 autophosphorylation based on the densitometry of FIG. 19(A). To” for “To”

melanoma SK-MEL-5 cells = test: MTS cell viability assay in SK-MEL-5 cells; type: cell-based; settings: Homo sapiens, SK-MEL-5, 48 h
Description: as §1

[15] = test system: ovarian cancer SKOV3 cells; test: MTS cell viability assay in SKOV3 cells; type: cell-based; settings: Homo sapiens, SK-OV-3, SKOV3, 48 h
Description: as §1

COc1cc2c3cc1Oc1c(OC)c(OC)cc4c1[C@@H](Cc1ccc(OCCCN5C(=O)c6ccccc6C5=O)c(c1)Oc1ccc(cc1)C[C@@H]3N(C)CC2)N(C)CC4 [BA #3]
pIC50 [1]: 5.17 | pIC50 [2]: 5.49 | body weight versus vehicle [3]: no significant weight differences | pIC50 (melanoma G361 cells): 5.51 | pIC50 [4]: 5.54 | pIC50 [5]: 5.47 | Bcl-xL protein level (Bcl-xL): down-regulated | pIC50 [6]: 5.55 | inhibition of Src kinase activity (Src kinase): did not inhibit | Mcl-1 protein level (Mcl-1): down-regulated | Jak2/Stat3 signaling (phosphorylations of Jak, Src, Stat3 and AKT) (Jak2/Stat3 signaling [7]): inhibited Jak2/Stat3 signaling | inhibition of Tyk2 kinase activity (Tyk2 kinase): did not inhibit | pIC50 [8]: 5.41 | pIC50 (melanoma A375 cells): 5.43 | pIC50 [9]: 5.54 | pIC50 (melanoma SK-MEL-28 cells): 5.52 | improvement in activity over berbamine [10]: at least 10 fold | pIC50 ([10]; Homo sapiens, K562/Adr, 48 h): 5.96 | inhibition of Jak1 kinase activity (Jak1 kinase): did not inhibit | apoptosis (Annexin V-FITC) (A2058 cells): induced apoptosis | inhibition of Jak2 kinase activity (Jak2 kinase): did not inhibit | pIC50 [11]: 5.19 | Jak2/Stat3 signaling (phosphorylations of Jak, Src, Stat3 and AKT) (Jak2/Stat3 signaling [12]): inhibited Jak2/Stat3 signaling | pIC50 [13]: 5.12 | pIC50 [14]: 6.16 | pIC50 (melanoma SK-MEL-5 cells): 5.48 | pIC50 [15]: 5.41

Source: patent publication US9233976B2, “Berbamine derivatives” (CITY OF HOPE, priority 2009, dated 2016)
